What was measured:
[1] = system: DU-145 prostate cancer cell line; assay: Cell growth inhibition assay, DU-145 (CellTiter-Glo); format: cell-based; details: Homo sapiens; DU-145, 3,000 cells/well, 96 hours
Protocol: (§1) The inhibitory effects of the compounds of the present invention against the growth of cancer cells were evaluated as shown below. The cancer cell lines including prostate cancer cell lines (LNCaP, DU-145), stomach cancer cell line (NCI-N87), and breast cancer cell lines (MDA-MB-468) were cultured under the protocol provided by each supplier. A medium supplemented with 10 ng/mL of IL-6 was used for LNCaP, a prostate cancer cell line, when treated with a drug. Each type of cells to be used in experiments was sub-cultured in a 96-well plate by counting the exact number of cells using Tali™ Image-based Cytometer (Life Technologies). In a 96-well plate, DU-145 was employed with 3,000 cells/well; NCI-N87 was employed with 5,000 cells/well; and LNCaP and MDA-MB-468 were employed with 10,000 cells/well. The cells were treated with the compounds listed in Examples which were diluted in various concentrations. Upon completion of the compounds treatment, LNCaP, DU-145, NCI-N87 cells were cultured at 37° C. under 5% CO2 for 96 hours, and MDA-MB-468 cells were cultured at 37° C. in air for 96 hours. Subsequently, the cells were observed under microscope and drug precipitation and particular findings were investigated and recorded. And then, the 96-well plate was placed at room temperature for 30 minutes, added with 20 pt/well of CellTiter-Glo solution (Cat No. G7573, Promega) and shaken for 10 minutes, followed by being subjected to the measurement using PHERAstar™ microplate reader (BMG LABTECH) according to the supplier's general luminometer protocol. Wells where only culture liquid added without cell plating were used as a negative control, whereas wells where culture liquid containing 0.1% DMSO instead of the compounds listed in Examples were used as a positive control.

STAT3 = STAT3 reporter gene assay (luciferase), LNCaP stable cell line pSTAT3-TA-luc, IL-6 stimulation; format: cell-based, human; details: Homo sapiens
Procedure, shortened: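 LNCaP cells stably carrying pSTAT3-TA-luc were plated 24 h in 3% DCC-FBS medium, then given compound followed by IL-6 (10 ng/mL final) for 24 h at 37 °C. Luciferase was read from lysates, with CellTiter-Glo viability on a duplicate plate. Stimulated 0.1% DMSO wells served as uninhibited control.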

[2] = system: LNCaP prostate cancer cell line; assay: Cell growth inhibition assay, LNCaP (CellTiter-Glo); format: cell-based; details: Homo sapiens; LNCaP, 10,000 cells/well, medium with 10 ng/mL IL-6, 96 hours
Protocol: as §1

STAT1 = STAT1 reporter gene assay (luciferase), U2OS stable cell line pGL4-STAT1-TA-luc, IFN-γ stimulation; format: cell-based, human; details: Homo sapiens, IFN-γ 50 ng/mL, 8 hours, read-out: IC50 (μM) pSTAT1
Procedure, shortened: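 U2OS cells stably carrying a STAT1-driven luciferase reporter were treated with serially diluted compounds plus IFN-γ (50 ng/mL final) for 8 h at 37 °C in 10% FBS medium. Luciferase read after lysis; parallel plate assessed for cytotoxicity by CellTiter-Glo.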

Row | IC50 [1] [µM] | IC50 (STAT3) [µM] | IC50 [2] [µM] | IC50 (STAT1) [µM] | SMILES
1 | 0.017 | 0.11 | 0.04 | > 50 | CC(C)(c1ccc(Cl)cc1)c1cc(Cl)cc(NC(=O)c2cc3cc(CS(C)(=O)=O)ccc3s2)c1 [Example 21, N-(3-chloro-5-(2-(4-chlorophenyl)propan-2-yl)phenyl)-5-((methylsulfonyl)methyl)benzo[b]thiophene-2-carboxamide]
2 | 0.013 | 0.028 | 0.023 | 35.7 | CS(=O)(=O)Cc1ccc2sc(C(=O)Nc3cc(Cl)cc(-c4ccc(F)cc4F)c3)cc2c1 [Example 95, N-(5-chloro-2′,4′-difluoro-[1,1′-biphenyl]-3-yl)-5-((methylsulfonyl)methyl)benzo[b]thiophene-2-carboxamide]
3 | 0.11 | 0.86 | 0.24 | > 50 | CC(C)(c1ccc2cc(C(=O)Nc3cc(Cl)cc(Oc4ccc(Cl)cc4)c3)sc2c1)S(C)(=O)=O [Example 58, N-(3-chloro-5-(4-chlorophenoxy)phenyl)-6-(2-(methylsulfonyl)propan-2-yl)benzo[b]thiophene-2-carboxamide]
4 | > 1.1 | 5.2 | > 1.1 | 13.3 | CC(C)(c1ccc2sc(C(=O)Nc3cc(OCCN)cc(Oc4ccc(Cl)cc4)c3)cc2c1)S(C)(=O)=O [Example 94, N-(3-(2-aminoethoxy)-5-(4-chlorophenoxy)phenyl)-5-(2-(methylsulfonyl)propan-2-yl)benzo[b]thiophene-2-carboxamide]
5 | 0.016 | 0.022 | 0.02 | > 50 | CC(C)(c1ccc2sc(C(=O)Nc3cc(Cl)cc(Oc4cc(F)cc(Cl)c4)c3)cc2c1)S(C)(=O)=O [Example 47, N-(3-chloro-5-(3-chloro-5-fluorophenoxy)phenyl)-5-(2-(methylsulfonyl)propan-2-yl)benzo[b]thiophene-2-carboxamide]
6 | 0.07 | 0.054 | 0.11 | > 50 | COc1cc(NC(=O)c2cc3cc(C(C)(C)S(C)(=O)=O)ccc3s2)cc(Oc2ccc(Cl)cc2)c1 [Example 46, N-(3-(4-chlorophenoxy)-5-methoxyphenyl)-5-(2-(methylsulfonyl)propan-2-yl)benzo[b]thiophene-2-carboxamide]
7 | 0.0059 | 0.014 | 0.029 | > 50 | CC(C)(c1ccc2sc(C(=O)Nc3cc(Cl)cc(Oc4ccc(Cl)c(F)c4)c3)cc2c1)S(C)(=O)=O [Example 54, N-(3-chloro-5-(4-chloro-3-fluorophenoxy)phenyl)-5-(2-(methylsulfonyl)propan-2-yl)benzo[b]thiophene-2-carboxamide]
8 | > 1.1 | 8.7 | > 1.1 | > 50 | CC(C)(c1ccc(Cl)cc1)c1cc(Cl)cc(NC(=O)c2cc3cc(C4(S(C)(=O)=O)CCOCC4)ccc3s2)c1 [Example 34, N-(3-chloro-5-(2-(4-chlorophenyl)propan-2-yl)phenyl)-5-(4-(methylsulfonyl)tetrahydro-2H-pyran-4-yl)benzo[b]thiophene-2-carboxamide]
9 | 0.019 | 0.019 | 0.039 | > 50 | CC(C)(c1cc2cc(C(=O)Nc3cc(Cl)cc(Oc4ccc(Cl)cc4)c3)sc2cc1F)S(C)(=O)=O [Example 44, N-(3-chloro-5-(4-chlorophenoxy)phenyl)-6-fluoro-5-(2-(methylsulfonyl)propan-2-yl)benzo[b]thiophene-2-carboxamide]
10 | 0.0018 | 0.0057 | 0.0022 | > 50 | CC(C)Oc1cc(OC(F)(F)F)cc(C(C)(C)c2cc(Cl)cc(NC(=O)c3cc4cc(CS(C)(=O)=O)ccc4s3)c2)c1 [Example 16, N-(3-chloro-5-(2-(3-isopropoxy-5-(trifluoromethoxy)phenyl)propan-2-yl)phenyl)-5-((methylsulfonyl)methyl)benzo[b]thiophene-2-carboxamide]
11 | > 1.1 | 0.9 | > 1.1 | > 50 | CC(C)(c1ccc(Cl)cc1)c1cc(Cl)cc(NC(=O)c2cc3cc(CS(=O)(=O)C(F)(F)F)ccc3s2)c1 [Example 24, N-(3-chloro-5-(2-(4-chlorophenyl)propan-2-yl)phenyl)-5-(((trifluoromethyl)sulfonyl)methyl)benzo[b]thiophene-2-carboxamide]
12 | 0.11 | 0.14 | 0.24 | > 50 | CC(C)(c1ccc(Cl)cc1)c1cc(NC(=O)c2cc3cc(C(C)(C)S(C)(=O)=O)ccc3s2)[nH]n1 [Example 89, N-(3-(2-(4-chlorophenyl)propan-2-yl)-1H-pyrazol-5-yl)-5-(2-(methylsulfonyl)propan-2-yl)benzo[b]thiophene-2-carboxamide]
13 | > 1.1 | 1.25 | > 1.1 | > 50 | O=C(Nc1cc(Cl)cc(Oc2ccc(Cl)cc2)c1)c1cc2cc(CS(=O)(=O)C(F)(F)F)ccc2s1 [Example 42, N-(3-chloro-5-(4-chlorophenoxy)phenyl)-5-(((trifluoromethyl)sulfonyl)methyl)benzo[b]thiophene-2-carboxamide]
14 | 0.17 | 0.18 | 0.26 | > 50 | CC(C)(c1ccc2sc(C(=O)Nc3cc(Cl)cc(Oc4ccc(Cl)cc4)n3)cc2c1)S(C)(=O)=O [Example 66, N-(4-chloro-6-(4-chlorophenoxy)pyridin-2-yl)-5-(2-(methylsulfonyl)propan-2-yl)benzo[b]thiophene-2-carboxamide]
15 | > 1.1 | 3.3 | > 1.1 | > 50 | CS(=O)(=O)C1(c2ccc3sc(C(=O)Nc4cc(Cl)cc(Oc5ccc(Cl)cc5)c4)cc3c2)CCOCC1 [Example 56, N-(3-chloro-5-(4-chlorophenoxy)phenyl)-5-(4-(methylsulfonyl)tetrahydro-2H-pyran-4-yl)benzo[b]thiophene-2-carboxamide]
16 | 0.1 | 0.072 | 0.26 | > 50 | CC(C)(C)OC(=O)NCCOc1cc(NC(=O)c2cc3cc(C(C)(C)S(C)(=O)=O)ccc3s2)cc(Oc2ccc(Cl)cc2)c1 [Example 93, tert-butyl (2-(3-(4-chlorophenoxy)-5-(5-(2-(methylsulfonyl)propan-2-yl)benzo[b]thiophene-2-carboxamido)phenoxy)ethyl)carbamate]
17 | 0.0053 | 0.018 | 0.0083 | > 50 | CC(C)(c1ccc2sc(C(=O)Nc3cc(Cl)cc(Oc4ccc(C(F)(F)F)cc4)c3)cc2c1)S(C)(=O)=O [Example 38, N-(3-chloro-5-(4-(trifluoromethyl)phenoxy)phenyl)-5-(2-(methylsulfonyl)propan-2-yl)benzo[b]thiophene-2-carboxamide]
18 | 0.008 | 0.014 | 0.01 | > 50 | CC(C)(c1ccc2sc(C(=O)Nc3cc(Cl)cc(Oc4cccc(OC(F)(F)F)c4)c3)cc2c1)S(C)(=O)=O [Example 48, N-(3-chloro-5-(3-(trifluoromethoxy)phenoxy)phenyl)-5-(2-(methylsulfonyl)propan-2-yl)benzo[b]thiophene-2-carboxamide]
19 | 0.023 | 0.054 | 0.03 | > 50 | CC(C)(c1ccc(Cl)cc1)c1cc(Cl)cc(NC(=O)c2cc3cc(C4(S(C)(=O)=O)CC4)ccc3s2)c1 [Example 33, N-(3-chloro-5-(2-(4-chlorophenyl)propan-2-yl)phenyl)-5-(1-(methylsulfonyl)cyclopropyl)benzo[b]thiophene-2-carboxamide]
20 | 0.032 | 0.034 | 0.046 | > 50 | CC(C)(c1ccc2sc(C(=O)Nc3cc(Oc4ccc(Cl)cc4)cc(Cl)n3)cc2c1)S(C)(=O)=O [Example 63, N-(6-chloro-4-(4-chlorophenoxy)pyridin-2-yl)-5-(2-(methylsulfonyl)propan-2-yl)benzo[b]thiophene-2-carboxamide]
21 | 0.063 | 0.16 | 0.12 | > 50 | CS(=O)(=O)Cc1ccc2sc(C(=O)Nc3cc(Cl)cc(Oc4ccc(Cl)cc4)c3)cc2c1 [Example 41, N-(3-chloro-5-(4-chlorophenoxy)phenyl)-5-((methylsulfonyl)methyl)benzo[b]thiophene-2-carboxamide]

From patent publication US10023591B2, “Heterocyclic derivatives and use thereof” (C&C RESEARCH LABORATORIES, priority 2014, dated 2018)
